# Results from patent publication US8247211B2, “Glycopeptide antibiotics” (American Cyanamid Company, priority 2001, dated 2012).
# Assays:
# Assay in all cases: In vitro antibacterial evaluation: minimum inhibitory concentration (MIC), broth dilution method
# Format in all cases: cell-based
# Enterococcus sp. = conditions: 18 hours at 35° C.
# Method in brief: (§1)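 Test strains, among them recent clinical isolates carrying methicillin, penicillin and/or vancomycin resistance, were inoculated at 5×10^5 CFU/mL. A broth dilution series spanning 64-0.06 μg/mL in Muller-Hinton II […] (NCCLS M7-A2) defined the MIC as the lowest growth-inhibiting concentration.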
# Streptococcus sp. = conditions: 18 hours at 35° C.
# Method in brief: as §1
# Escherichia coli = conditions: 18 hours at 35° C.
# Method in brief: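 NCCLS M7-A2 broth dilution with Mueller-Hinton II, testing 64-0.06 μg/mL antibiotic against 5×10^5 CFU/mL inocula. Test strains include recent methicillin-, penicillin- or vancomycin-resistant clinical isolates. MIC is the lowest concentration preventing growth.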
# Staphylococcus sp. = conditions: for MIC Coagulase Negative Staphylococcus (GC 6257): strain GC 6257; for MIC Staphylococcus aureus (GC 3051): strain GC 3051; for MIC Staphylococcus aureus (GC 3053): strain GC 3053
# Method in brief: as §1
# [1] = Enterococcus faecalis (ATCC 29212)
# [2] = Enterococcus faecalis (GC 2242)
# [3] = Enterococcus faecalis (GC 4552)
# [4] = Enterococcus faecalis (GC 4553)
# [5] = Enterococcus faecalis (GC 4554)
# [6] = Streptococcus agalactiae (GC 4564)
# [7] = Streptococcus pneumoniae (GC 4565)
# [8] = broth dilution, inoculum 5×10^5 CFU/mL
# [9] = broth dilution, 18 hours at 35° C.
molecule,measurement,setting,value
"CCCCCNC(=O)OCC1OC(OC2C(CO)OC(Oc3ccc(CC4NC(=O)C(C(C)c5ccccc5)NC(=O)CNC(=O)C(CO)NC(=O)C(C(O)C5CNC(=N)N5C5OC(CO)C(O)C(O)C5O)NC(=O)C(C(O)C5CNC(=N)N5)NC4=O)cc3)C(O)C2O)C(O)C(O)C1O (stereo not drawn) [Example 251b, γ-O-[(Pentylamino)carbonyl]-cyclo[glycyl-β-methylphenylalanyl-O-(4-O-hexopyranosylhexopyranosyl)tyrosyl-3-(2-iminoimidazolidin-4-yl)seryl-3-(3-hexopyranosyl-2-iminoimidazolidin-4-yl)serylseryl]]",MIC Enterococcus avium (GC 4558),Enterococcus sp.; Enterococcus avium (GC 4558),64 mg/L
same,MIC Enterococcus faecalis (ATCC 29212),Enterococcus sp.; [1],64 mg/L
same,MIC Enterococcus faecalis (GC 2242),Enterococcus sp.; [2],32 mg/L
same,MIC Enterococcus faecalis (GC 4552),Enterococcus sp.; [3],64 mg/L
same,MIC Enterococcus faecalis (GC 4553),Enterococcus sp.; [4],64 mg/L
same,MIC Enterococcus faecalis (GC 4554),Enterococcus sp.; [5],64 mg/L
same,MIC Enterococcus faecium (GC 2243),Enterococcus sp.; Enterococcus faecium (GC 2243),64 mg/L
same,MIC Enterococcus faecium (GC 4556),Enterococcus sp.; Enterococcus faecium (GC 4556),64 mg/L
same,MIC Enterococcus faecium (GC 4557),Enterococcus sp.; Enterococcus faecium (GC 4557),4 mg/L
same,MIC Streptococcus agalactiae (GC 4564),Streptococcus sp.; [6],4 mg/L
same,MIC Streptococcus pneumoniae (GC 4565),Streptococcus sp.; [7],1 mg/L
same,MIC Streptococcus pyogenes (ID-3187),Streptococcus sp.; Streptococcus pyogenes (ID-3187),2 mg/L
same,MIC Escherichia coli (ATCC 25922),Escherichia coli,>64 mg/L
same,MIC Escherichia coli (GC 4559),Escherichia coli,>64 mg/L
same,MIC Escherichia coli (GC 4560),Escherichia coli,2 mg/L
same,MIC Coagulase Negative Staphylococcus (GC 4547),"Staphylococcus sp.; Coagulase Negative Staphylococcus (GC 4547), 18 hours at 35° C.",8 mg/L
same,MIC Coagulase Negative Staphylococcus (GC 4548),"Staphylococcus sp.; Coagulase Negative Staphylococcus (GC 4548), 18 hours at 35° C.",8 mg/L
same,MIC Coagulase Negative Staphylococcus (GC 4549),"Staphylococcus sp.; Coagulase Negative Staphylococcus (GC 4549), 18 hours at 35° C.",4 mg/L
same,MIC Coagulase Negative Staphylococcus (GC 4551),"Staphylococcus sp.; Coagulase Negative Staphylococcus (GC 4551), 18 hours at 35° C.",16 mg/L
same,MIC Coagulase Negative Staphylococcus (ID-3941),"Staphylococcus sp.; Coagulase Negative Staphylococcus (ID-3941), 18 hours at 35° C.",4 mg/L
same,MIC Staphylococcus aureus (ATCC 29213),"Staphylococcus sp.; Staphylococcus aureus (ATCC 29213), 18 hours at 35° C.",16 mg/L
same,MIC Staphylococcus aureus (GC 1131),"Staphylococcus sp.; Staphylococcus aureus (GC 1131), 18 hours at 35° C.",8 mg/L
same,MIC Staphylococcus aureus (GC 4541),"Staphylococcus sp.; Staphylococcus aureus (GC 4541), 18 hours at 35° C.",8 mg/L
same,MIC Staphylococcus aureus (GC 4542),"Staphylococcus sp.; Staphylococcus aureus (GC 4542), 18 hours at 35° C.",8 mg/L
same,MIC Staphylococcus aureus (GC 4544),"Staphylococcus sp.; Staphylococcus aureus (GC 4544), 18 hours at 35° C.",16 mg/L
same,MIC Staphylococcus aureus (GC 4545),"Staphylococcus sp.; Staphylococcus aureus (GC 4545), 18 hours at 35° C.",8 mg/L
same,MIC Staphylococcus aureus-SMITH (GC 4543),"Staphylococcus sp.; Staphylococcus aureus-SMITH (GC 4543), 18 hours at 35° C.",8 mg/L
same,MIC Staphylococcus haemolyticus (GC 4546),"Staphylococcus sp.; Staphylococcus haemolyticus (GC 4546), 18 hours at 35° C.",8 mg/L
"Cyclo[glycyl-4-chloro-β-methylphenylalanyl-O-[4-O-(4,6-O-cyclopentylidenehexopyranosyl)-hexopyranosyl]tyrosyl-3-(2-iminoimidazolidin-4-yl)seryl-3-(3-hexopyranosyl-2-iminoimidazolidin-4-yl)serylseryl] [Example 202]",MIC Enterococcus avium (GC 4558),Enterococcus sp.; Enterococcus avium (GC 4558),32 mg/L
same,MIC Enterococcus faecalis (ATCC 29212),Enterococcus sp.; [1],32 mg/L
same,MIC Enterococcus faecalis (GC 2242),Enterococcus sp.; [2],16 mg/L
same,MIC Enterococcus faecalis (GC 2691),Enterococcus sp.; Enterococcus faecalis (GC 2691),16 mg/L
same,MIC Enterococcus faecalis (GC 3059),Enterococcus sp.; Enterococcus faecalis (GC 3059),64 mg/L
same,MIC Enterococcus faecalis (GC 4552),Enterococcus sp.; [3],32 mg/L
same,MIC Enterococcus faecalis (GC 4553),Enterococcus sp.; [4],32 mg/L
same,MIC Enterococcus faecalis (GC 4554),Enterococcus sp.; [5],32 mg/L
same,MIC Enterococcus faecalis (GC 6189),Enterococcus sp.; Enterococcus faecalis (GC 6189),16 mg/L
same,MIC Enterococcus faecium (GC 2243),Enterococcus sp.; Enterococcus faecium (GC 2243),32 mg/L
same,MIC Enterococcus faecium (GC 4556),Enterococcus sp.; Enterococcus faecium (GC 4556),16 mg/L
same,MIC Enterococcus faecium (GC 4557),Enterococcus sp.; Enterococcus faecium (GC 4557),4 mg/L
same,MIC Enterococcus avium (GC 4558),Enterococcus sp.; [8],32 mg/L
same,MIC Enterococcus faecalis (ATCC 29212),Enterococcus sp.; [8],32 mg/L
same,MIC Enterococcus faecalis (GC 2242),Enterococcus sp.; [8],16 mg/L
same,MIC Enterococcus faecalis (GC 2691),Enterococcus sp.; [8],16 mg/L
same,MIC Enterococcus faecalis (GC 3059),Enterococcus sp.; [8],64 mg/L
same,MIC Enterococcus faecalis (GC 4552),Enterococcus sp.; [8],32 mg/L
same,MIC Enterococcus faecalis (GC 4553),Enterococcus sp.; [8],32 mg/L
same,MIC Enterococcus faecalis (GC 4554),Enterococcus sp.; [8],32 mg/L
same,MIC Enterococcus faecalis (GC 6189),Enterococcus sp.; [8],16 mg/L
same,MIC Enterococcus faecium (GC 2243),Enterococcus sp.; [8],32 mg/L
same,MIC Enterococcus faecium (GC 4556),Enterococcus sp.; [8],16 mg/L
same,MIC Enterococcus faecium (GC 4557),Enterococcus sp.; [8],4 mg/L
same,MIC Streptococcus agalactiae (GC 4564),Streptococcus sp.; [6],2 mg/L
same,MIC Streptococcus pneumoniae (ATCC 6301),Streptococcus sp.; Streptococcus pneumoniae (ATCC 6301),<0.5 mg/L
same,MIC Streptococcus pneumoniae (GC 1894),Streptococcus sp.; Streptococcus pneumoniae (GC 1894),<0.5 mg/L
same,MIC Streptococcus pneumoniae (GC 4565),Streptococcus sp.; [7],8 mg/L
same,MIC Streptococcus pyogenes (GC 4563),Streptococcus sp.; Streptococcus pyogenes (GC 4563),1 mg/L
same,MIC Streptococcus agalactiae (GC 4564),Streptococcus sp.; [8],2 mg/L
same,MIC Streptococcus pneumoniae (ATCC 6301),Streptococcus sp.; [8],<0.5 mg/L
same,MIC Streptococcus pneumoniae (GC 1894),Streptococcus sp.; [8],<0.5 mg/L
same,MIC Streptococcus pneumoniae (GC 4565),Streptococcus sp.; [8],8 mg/L
same,MIC Streptococcus pyogenes (GC 4563),Streptococcus sp.; [8],1 mg/L
same,MIC Escherichia coli (ATCC 25922),Escherichia coli,32 mg/L
same,MIC Escherichia coli (GC 4559),Escherichia coli,16 mg/L
same,MIC Escherichia coli (GC 4560),Escherichia coli,2 mg/L
same,MIC Staphylococcus aureus-SMITH (GC 4543),"Staphylococcus sp.; broth dilution, 18 hours at 35° C., strain GC 4543",4 mg/L
same,MIC Staphylococcus haemolyticus (GC 4546),"Staphylococcus sp.; broth dilution, 18 hours at 35° C., strain GC 4546",2 mg/L
same,MIC Coagulase Negative Staphylococcus (GC 4547),"Staphylococcus sp.; broth dilution, 18 hours at 35° C., strain GC 4547",2 mg/L
same,MIC Coagulase Negative Staphylococcus (GC 4548),"Staphylococcus sp.; broth dilution, 18 hours at 35° C., strain GC 4548",2 mg/L
same,MIC Coagulase Negative Staphylococcus (GC 4549),"Staphylococcus sp.; broth dilution, 18 hours at 35° C., strain GC 4549",4 mg/L
same,MIC Coagulase Negative Staphylococcus (GC 4551),"Staphylococcus sp.; broth dilution, 18 hours at 35° C., strain GC 4551",4 mg/L
same,MIC Coagulase Negative Staphylococcus (GC 6257),Staphylococcus sp.; [9],2 mg/L
same,MIC Staphylococcus aureus (ATCC 29213),Staphylococcus sp.; strain ATCC 29213,4 mg/L
same,MIC Staphylococcus aureus (ATCC 29213),"Staphylococcus sp.; strain ATCC 29213, broth dilution, 18 hours at 35° C.",4 mg/L
same,MIC Staphylococcus aureus (GC 1131),Staphylococcus sp.; strain GC 1131,4 mg/L
same,MIC Staphylococcus aureus (GC 1131),"Staphylococcus sp.; strain GC 1131, broth dilution, 18 hours at 35° C.",4 mg/L
same,MIC Staphylococcus aureus (GC 3051),Staphylococcus sp.,4 mg/L
same,MIC Staphylococcus aureus (GC 3051),Staphylococcus sp.; [9],4 mg/L
same,MIC Staphylococcus aureus (GC 3053),Staphylococcus sp.,8 mg/L
same,MIC Staphylococcus aureus (GC 3053),Staphylococcus sp.; [9],8 mg/L
same,MIC Staphylococcus aureus (GC 4541),Staphylococcus sp.; strain GC 4541,4 mg/L
same,MIC Staphylococcus aureus (GC 4541),"Staphylococcus sp.; strain GC 4541, broth dilution, 18 hours at 35° C.",4 mg/L
same,MIC Staphylococcus aureus (GC 4542),Staphylococcus sp.; strain GC 4542,4 mg/L
same,MIC Staphylococcus aureus (GC 4542),"Staphylococcus sp.; strain GC 4542, broth dilution, 18 hours at 35° C.",4 mg/L
same,MIC Staphylococcus aureus-SMITH (GC 4543),Staphylococcus sp.; strain GC 4543,4 mg/L
same,MIC Staphylococcus aureus (GC 4544),Staphylococcus sp.; strain GC 4544,4 mg/L
same,MIC Staphylococcus aureus (GC 4544),"Staphylococcus sp.; strain GC 4544, broth dilution, 18 hours at 35° C.",4 mg/L
same,MIC Staphylococcus aureus (GC 4545),Staphylococcus sp.; strain GC 4545,4 mg/L
same,MIC Staphylococcus aureus (GC 4545),"Staphylococcus sp.; strain GC 4545, broth dilution, 18 hours at 35° C.",4 mg/L
same,MIC Staphylococcus haemolyticus (GC 4546),Staphylococcus sp.; strain GC 4546,2 mg/L
same,MIC Coagulase Negative Staphylococcus (GC 4547),Staphylococcus sp.; strain GC 4547,2 mg/L
same,MIC Coagulase Negative Staphylococcus (GC 4548),Staphylococcus sp.; strain GC 4548,2 mg/L
same,MIC Coagulase Negative Staphylococcus (GC 4549),Staphylococcus sp.; strain GC 4549,4 mg/L
same,MIC Coagulase Negative Staphylococcus (GC 4551),Staphylococcus sp.; strain GC 4551,4 mg/L
same,MIC Coagulase Negative Staphylococcus (GC 6257),Staphylococcus sp.,2 mg/L
